The values that follow come from ChEMBL document CHEMBL1201862, “PubChem BioAssay data set” (2004).

Assay in all cases: growth of human tumour cells (NCI), 48 h
The subject of experiment [1] is A498.
Experiment [2] concerns ACHN.
Experiment [3] deals with BT-549.
For experiment [4], the system named is CCRF-CEM.
In experiment [5] the test system is HCT-15.
The subject of experiment [6] is HT-29.
The test system of experiment [7] is K562.
Experiment [8] relates to MCF7.
Experiment [9] has as its system MDA-MB-231.
For experiment [10], the system named is NCI-H226.
Experiment [11] concerns NCI-H23.
The subject of experiment [12] is NCI-H460.
Experiment [13] relates to RPMI-8226.
For experiment [14], the system named is SF-295.
Experiment [15] concerns SK-MEL-28.
Experiment [16] deals with SK-MEL-5.
Experiment [17] concerns SN12C.
For experiment [18], the system named is T47D.
For experiment [19], the system named is HCC 2998.

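Cultured in 96-well plates, cells were exposed to test compound for 48 hours across five concentrations. GI50 is the concentration that inhibits growth by half.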 Activity calls are given as the source filed them. No stated cut-off is given here; in the data, active = GI50 up to about 1.1 µM and inactive = higher.

Consider `O=[N+]([O-])c1ccc2c3ccccc3[s+]([O-])c2c1` (stereo unspecified), for which the GI50 is > 100 µM (inactive) in experiment [1]; > 100 µM (inactive) in experiment [2]; > 100 µM (inactive) in experiment [3]; > 100 µM (inactive) in [4]; greater than 100 µM in experiment [5]; > 100 µM (inactive) in experiment [6]. Besides, the GI50 in [7] is > 100 µM (inactive); in experiment [8], 74 µM (inactive); in experiment [9] it was > 100 µM (inactive); in experiment [10], > 100 µM (inactive); in experiment [11], > 100 µM (inactive); in [12], > 100 µM (inactive). Further, the GI50 in [13], in experiment [14], in [15], in experiment [16], in experiment [17] and in [18] was > 100 µM (inactive) throughout.

As for `N#Cc1cc(-c2nc3c(F)cccc3s2)ccc1N`, the GI50 was > 100 µM (inactive) in [1]; > 100 µM (inactive) in experiment [2]; > 100 µM (inactive) in experiment [3]; 85.5 µM (inactive) in experiment [4]; greater than 100 µM in experiment [5]; > 100 µM (inactive) in experiment [6]. Moreover, the GI50 was > 100 µM (inactive) in [7]; 0.133 µM (active) in [8]; > 100 µM (inactive) in experiment [9]; > 100 µM (inactive) in experiment [10]; > 100 µM (inactive) in [11]; 20.5 µM (inactive) in experiment [12]. Besides, the GI50 is > 100 µM (inactive) in experiment [13]; > 100 µM (inactive) in experiment [14]; 56.4 µM (inactive) in experiment [16]; > 100 µM (inactive) in experiment [17]; 0.912 µM (active) in experiment [18].

Consider `O=[N+]([O-])c1cccc(CSc2nc(O)c3nc[nH]c3n2)c1`, for which the GI50 in [1] is > 100 µM (inactive); in [2] it was > 100 µM (inactive); in experiment [3] it was > 100 µM (inactive); in experiment [4], 9.46 µM (inactive); in experiment [5] it was greater than 100 µM; in [6], > 100 µM (inactive). For the same molecule, the GI50 is 78.2 µM (inactive) in [7]; > 100 µM (inactive) in [8]; > 100 µM (inactive) in experiment [9]; 79.8 µM (inactive) in experiment [10]; > 100 µM (inactive) in [11]; > 100 µM (inactive) in experiment [12]. The GI50 in experiment [13], in [14], in experiment [15], in [16], in [17] and in [18] was > 100 µM (inactive) in each case.

For `Cc1c(/C=N/NC(=S)Nc2ccccc2Cl)c(=O)n(-c2ccccc2)n1C`, the GI50 in experiment [1] was 30.4 µM (inactive); in experiment [3] it was 54.2 µM (inactive); in experiment [4], 11 µM (inactive); in [5], 8.53 µM; in experiment [6], 29.4 µM (inactive); in experiment [7], 27.9 µM (inactive). Moreover, the GI50 in experiment [8] is 46.5 µM (inactive); in experiment [9] it was 14.9 µM (inactive); in experiment [10], 68.5 µM (inactive); in experiment [12], 25.4 µM (inactive); in experiment [13], 48.9 µM (inactive); in experiment [14] it was 28.1 µM (inactive). For the same molecule, the GI50 was 58.6 µM (inactive) in experiment [15], 32.7 µM (inactive) in experiment [16], 44.2 µM (inactive) in experiment [17] and 13 µM (inactive) in experiment [18].

Turning to `CC(=O)Nc1ncc2c(n1)-c1ccccc1OC2`, the GI50 in [1] was > 100 µM (inactive); in experiment [2], 54.3 µM (inactive); in experiment [3], > 100 µM (inactive); in [4], > 100 µM (inactive); in experiment [5], greater than 100 µM; in [6], > 100 µM (inactive). Also, the GI50 in experiment [8], in experiment [9], in experiment [10], in [11], in [12] and in experiment [13] was > 100 µM (inactive) each time. The GI50 in experiment [14], in experiment [16], in experiment [17] and in experiment [18] was > 100 µM (inactive) each time.

With `COc1cc(/C=N\N(C)C)cc(/C=N/N(C)C)c1O`, the GI50 in experiment [1] was 45.6 µM (inactive); in experiment [2], 21.3 µM (inactive); in [3] it was 13.4 µM (inactive); in experiment [4] it was 17.3 µM (inactive); in [5], 88.1 µM; in experiment [6] it was 10.6 µM (inactive). For the same molecule, the GI50 in experiment [8] was > 100 µM (inactive); in experiment [9], 25.8 µM (inactive); in experiment [10] it was 15.8 µM (inactive); in [11], > 100 µM (inactive); in [12], 30.1 µM (inactive); in experiment [13] it was 19.6 µM (inactive). The GI50 was 2.9 µM (inactive) in experiment [14]; 19.3 µM (inactive) in experiment [15]; 26.2 µM (inactive) in [16]; 14.4 µM (inactive) in experiment [17]; 1.98 µM (inactive) in experiment [18].

`Nc1cc([N+](=O)[O-])ccc1C(=O)N1CCC[C@H]1CO`: the GI50 in experiment [1] is > 100 µM (inactive); in [2], > 100 µM (inactive); in experiment [3] it was > 100 µM (inactive); in experiment [4], > 100 µM (inactive); in experiment [5], greater than 100 µM; in experiment [6], > 100 µM (inactive). Besides, the GI50 in experiment [7], in [8], in [9], in experiment [10], in experiment [11] and in [12] was > 100 µM (inactive) each time. The GI50 in [13] is > 100 µM (inactive); in experiment [14], > 100 µM (inactive); in experiment [15], > 100 µM (inactive); in [17], > 100 µM (inactive); in experiment [18], 90.4 µM (inactive).

`ClC(Cl)(Cl)C1CCOC1n1nnc2ccccc21` (stereo unspecified): the GI50 in [1] is > 100 µM (inactive); in experiment [3], 25.9 µM (inactive); in [4], 44.1 µM (inactive); in experiment [19] it was > 100 µM (inactive); in [6] it was 73.5 µM (inactive); in experiment [7], 24.1 µM (inactive). The GI50 is > 100 µM (inactive) in experiment [8]; > 100 µM (inactive) in experiment [9]; > 100 µM (inactive) in experiment [10]; 24.3 µM (inactive) in experiment [11]; > 100 µM (inactive) in experiment [14]; 45.2 µM (inactive) in [16]. The GI50 in experiment [17] and in [18] was > 100 µM (inactive) throughout.

`CC1CC[C@@]2(OC1)OC1CC3C4CCC5C[C@@H](OC6OC(CO)C(OC7OC(CO)C(O)C(OC8OC(CO)C(O)C(OC9OC(CO)C(O)C(O)C9O)C8O)C7OC7OC(CO)C(O)C(O)C7O)C(O)C6O)[C@H](O)C[C@]5(C)C4CC[C@]3(C)C1[C@@H]2C` (stereo partly specified): the GI50 in experiment [1] was > 80.5 µM (inactive); in experiment [2], > 80.5 µM (inactive); in experiment [3], > 80.5 µM (inactive); in experiment [4] it was > 80.5 µM (inactive); in experiment [19], > 80.5 µM (inactive); in experiment [5], greater than 80.5 µM. Further, the GI50 in experiment [6], in experiment [7], in experiment [8], in experiment [9], in experiment [10] and in experiment [11] was > 80.5 µM (inactive) in each case. Besides, the GI50 in [12], in experiment [14], in [15], in experiment [16], in experiment [17] and in experiment [18] was > 80.5 µM (inactive) each time.
